Measured values taken from paper PMC8427442 (Frontiers in Pharmacology, 2021).
pEC50, pIC50: −log10 of the molar value. Several values for one entry are separate records, joined by “and”; a condition that tells them apart may be missing. Equal entries are not always repeated.

Tests used:
SARS-CoV-2 3CLpro = SARS-CoV-2 3CLpro (Severe acute respiratory syndrome coronavirus 2, UniProt P0DTD1); experiment: Protease activity assay with IQF peptide substrate, dose-response; assay type: biochemical; details: for pIC50: IC50 against SARS-CoV-2 3CLpro, 0.125 µM 3CLpro, 1 h preincubation at 37°C, 1.25 µM IQF peptide substrate, 3 h, N = 3, mean ± SEM; for relative SARS-CoV-2 3CLpro activity (down from 100%): compound at 12.5 µM, data not shown
SARS-CoV 3CLpro = SARS-CoV 3CLpro (Severe acute respiratory syndrome coronavirus, UniProt P0C6X7); assay type: biochemical
TNF-α = TNF-α protein level by western blot in LPS-stimulated A549 cells; assay type: cell-based, human; details: 20 µM, 1 h before 10 μg/ml LPS, 24 h
From the text: For western blot analysis, an equal amount of the samples were resolved by SDS-PAGE, followed by transfer to PVDF membranes, following the protocol published previously ([Chiang et al., 2020]). Antibodies against TNF-α (GTX110520) and β-actin (GTX109639) were purchased from GeneTex, Taiwan. HRP-conjugated secondary antibodies were from Jackson ImmunoResearch Laboratories, Inc., United States. WesternBright® ECL kits were used for protein visualization (Advansta Inc., United States). Levels of protein expression were quantified in Fiji ([Schindelin et al., 2012]).
Human alveolar basal epithelial A549 cells have been used to investigate several lung diseases at the cellular level, including endotoxin-induced acute pneumonia ([Zhang J. et al., 2020]). To evaluate the anti-inflammatory effect of UJ, A549 cells were induced with lipopolysaccharide (LPS) for 24 h with or without treatment with UJ. Dexamethasone (Dex), an anti-inflammatory agent ([Chen et al., 2021]), was included as a positive control. […] In addition, the expression levels of proinflammatory genes, including interleukin 1β (IL-1β), IL-6 and IL-8 increased by 1.5- to 2-fold in LPS-stimulated A549 cells, compared with the control group (Figures 4B–D). […] Compared to the positive control (Dex at 5 µM), UJ treatment at 20 µM gave rise to a greater decrease in the TNF-α protein level and IL-6 and IL-8 mRNA. […]

IL-6, IL-1β, IL-8 mRNA = experiment: Proinflammatory gene mRNA by RT-PCR in LPS-stimulated A549 cells; assay type: cell-based, human; details: 20 µM; for potency in reducing the levels of the four proinflammatory factors (TNF-α, IL-6, IL-1β, IL-8), compared to UJ: LPS-stimulated A549 cells
SARS-CoV-2 = experiment: Plaque assay in SARS-CoV-2-infected Vero E6 cells; assay type: cell-based
in vitro = details: African green monkey, half-maximal cytotoxic concentration (CC50)
[1] = 1 h before 10 μg/ml LPS, 24 h, A549 cells

Row | Compound | pIC50 (SARS-CoV-2 3CLpro) | relative SARS-CoV-2 3CLpro activity (down from 100%) (SARS-CoV-2 3CLpro) | relative SARS-CoV 3CLpro activity (down from 100%) (SARS-CoV 3CLpro) | potency in reducing the levels of the four proinflammatory factors (TNF-α, IL-6, IL-1β, IL-8), compared to UJ (IL-6, IL-1β, IL-8 mRNA) | also measured
1 | C=C1CCCC(C)(C)[C@@H]1Cc1c(O)cc2oc(-c3ccc(O)c(O)c3)cc(=O)c2c1O [UJ, ugonin J] | 6.03 and ~6.03 | about 15% | about 15% |  | reduction of TNF-α protein expression level (TNF-α): more than 2 fold; downregulation of IL-1β mRNA expression level (IL-6, IL-1β, IL-8 mRNA; [1]): more than 1 fold; downregulation of IL-6 mRNA expression level (IL-6, IL-1β, IL-8 mRNA; [1]): more than 1 fold; downregulation of IL-8 mRNA expression level (IL-6, IL-1β, IL-8 mRNA; [1]): more than 1 fold; pEC50 (SARS-CoV-2; Severe acute respiratory syndrome coronavirus 2, Vero C1008, Vero E6 cells, 100 PFU, 1 h pretreatment, 3 days, N = 3, mean ± SEM, read-out: half-maximal effective concentration (EC50) against SARS-CoV-2 infection): ~5.62; prevention of SARS-CoV-2 infection (SARS-CoV-2; pretreatment at 10 µM, Vero E6 cells, plaque assay): near complete prevention; CC50 at 48 h (in vitro): ~783 µM
2 | O=c1c(O)c(-c2ccc(O)cc2)oc2cc(O)cc(O)c12 [Kae, kaempferol] | < 4.70 and 4.66 | 60–70% | 60–70% | relatively moderate potency | 
3 | O=c1cc(-c2ccc(O)c(O)c2)oc2cc(O)cc(O)c12 [Lu, luteolin] | < 4.70 and 4.69 |  |  |  | 
4 | CCC(CC)COC(=O)[C@H](C)N[P@](=O)(OC[C@H]1O[C@@](C#N)(c2ccc3c(N)ncnn23)[C@H](O)[C@@H]1O)Oc1ccccc1 [Rem, Remdesivir] |  |  |  |  | inhibition at 2 µM (SARS-CoV-2; Severe acute respiratory syndrome coronavirus 2, Vero C1008, 2 µM, Vero E6 cells, plaque assay, read-out: inhibition of SARS-CoV-2 infection): ~95%
5 | COc1c(-c2ccc(O)cc2)oc2cc(O)cc(O)c2c1=O [Ikae, isokaempferide] | < 4.70 and 4.40 | 60–70% | 60–70% | relatively moderate potency | 
